Test results: the kinase profiling compilation of Christmann-Franck et al. (2016)

Experiments:
Assay in all cases: KINOMEscan competition binding
Conditions in all cases: compound 10.0 µM
[1] = target: RPS6KA1 KD2 (human) (UniProt Q15418)
[2] = target: TNIK (human) (UniProt Q9UKE5)
[3] = target: PRPF4B (human) (UniProt Q13523)
[4] = target: PAK1 (human) (UniProt Q13153)
[5] = target: MAPK15 (human) (UniProt Q8TD08)
[6] = target: RIOK3 (human) (UniProt O14730)
[7] = target: PRKG2 (human) (UniProt Q13237)
[8] = target: CDK18 (human) (UniProt Q07002)
[9] = target: MATK (human) (UniProt P42679)
[10] = target: HIPK1 (human) (UniProt Q86Z02)
[11] = target: NEK3 (human) (UniProt P51956)
[12] = target: SNRK (human) (UniProt Q9NRH2)
[13] = target: TSSK1B (human) (UniProt Q9BXA7)
[14] = target: IRAK1 (human) (UniProt P51617)
[15] = target: CaMK1 (human) (UniProt Q14012)
[16] = target: RPS6KA4 KD1 (human) (UniProt O75676)
[17] = system: EGFR (human), P00533 [G719C]
[18] = target: CDC42BPG (human) (UniProt Q6DT37)
[19] = target: CSK (human) (UniProt P41240)
[20] = target: MAP4K5 (human) (UniProt Q9Y4K4)
[21] = target: TLK1 (human) (UniProt Q9UKI8)
[22] = target: ERN1 (human) (UniProt O75460)
[23] = target: MST1R (human) (UniProt Q04912)
[24] = target: ANKK1 (human) (UniProt Q8NFD2)
[25] = target: NEK7 (human) (UniProt Q8TDX7)
[26] = target: STK17B (human) (UniProt O94768)
[27] = system: BMX (human), P51813 [V600E]
[28] = target: PLK3 (human) (UniProt Q9H4B4)
[29] = target: MAP2K2 (human) (UniProt P36507)
[30] = target: MAPK8 (human) (UniProt P45983)
[31] = target: BRSK1 (human) (UniProt Q8TDC3)
[32] = target: PHKG2 (human) (UniProt P15735)
[33] = target: TYK2 JH1 catalytic (human) (UniProt P29597)
[34] = target: BLK (human) (UniProt P51451)
[35] = target: CDK4 CCND3 (human) (UniProt P11802+P30281)
[36] = target: ADCK3 (human) (UniProt Q8NI60)
[37] = target: NTRK3 (human) (UniProt Q16288)
[38] = target: SGK110 (human) (UniProt P0C264)
[39] = target: FLT1 (human) (UniProt P17948)
[40] = system: FLT3 (human), P36888 [D835Y]

Sequence of NEK7 (human) (Q8TDX7 whole entry, looked up): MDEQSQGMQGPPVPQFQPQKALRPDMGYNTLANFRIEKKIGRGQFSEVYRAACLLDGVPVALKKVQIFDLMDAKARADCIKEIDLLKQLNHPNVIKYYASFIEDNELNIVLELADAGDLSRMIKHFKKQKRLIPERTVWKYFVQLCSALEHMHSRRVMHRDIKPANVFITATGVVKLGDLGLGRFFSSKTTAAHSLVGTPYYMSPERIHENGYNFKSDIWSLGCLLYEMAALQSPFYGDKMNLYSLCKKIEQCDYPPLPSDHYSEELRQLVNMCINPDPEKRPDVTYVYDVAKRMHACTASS
Sequence of ERN1 (human) (O75460 whole entry, looked up): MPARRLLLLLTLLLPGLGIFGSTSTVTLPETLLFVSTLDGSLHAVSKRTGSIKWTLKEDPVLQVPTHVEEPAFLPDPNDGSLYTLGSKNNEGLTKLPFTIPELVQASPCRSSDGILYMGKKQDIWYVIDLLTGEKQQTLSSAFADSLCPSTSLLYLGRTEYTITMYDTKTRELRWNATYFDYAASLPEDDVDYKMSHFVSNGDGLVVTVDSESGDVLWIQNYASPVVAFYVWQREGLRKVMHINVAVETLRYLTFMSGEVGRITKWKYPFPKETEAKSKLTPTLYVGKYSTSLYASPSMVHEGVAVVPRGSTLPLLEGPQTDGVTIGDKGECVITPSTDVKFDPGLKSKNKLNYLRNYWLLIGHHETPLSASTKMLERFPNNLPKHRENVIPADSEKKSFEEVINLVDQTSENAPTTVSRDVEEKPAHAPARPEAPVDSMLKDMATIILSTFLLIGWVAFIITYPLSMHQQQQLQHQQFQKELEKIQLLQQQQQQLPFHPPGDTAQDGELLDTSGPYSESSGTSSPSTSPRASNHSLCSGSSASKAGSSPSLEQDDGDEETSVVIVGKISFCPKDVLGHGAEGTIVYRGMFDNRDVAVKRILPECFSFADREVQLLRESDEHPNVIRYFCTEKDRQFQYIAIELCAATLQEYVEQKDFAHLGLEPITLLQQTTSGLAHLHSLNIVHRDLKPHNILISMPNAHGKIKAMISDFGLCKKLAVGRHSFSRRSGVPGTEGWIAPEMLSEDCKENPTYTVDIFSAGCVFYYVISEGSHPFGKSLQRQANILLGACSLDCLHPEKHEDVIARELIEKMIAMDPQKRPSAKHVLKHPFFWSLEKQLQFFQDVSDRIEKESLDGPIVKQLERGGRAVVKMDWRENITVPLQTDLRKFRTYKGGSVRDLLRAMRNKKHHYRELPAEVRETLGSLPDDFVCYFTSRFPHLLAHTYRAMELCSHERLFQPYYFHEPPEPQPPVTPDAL
Sequence of IRAK1 (human) (P51617 whole entry, looked up): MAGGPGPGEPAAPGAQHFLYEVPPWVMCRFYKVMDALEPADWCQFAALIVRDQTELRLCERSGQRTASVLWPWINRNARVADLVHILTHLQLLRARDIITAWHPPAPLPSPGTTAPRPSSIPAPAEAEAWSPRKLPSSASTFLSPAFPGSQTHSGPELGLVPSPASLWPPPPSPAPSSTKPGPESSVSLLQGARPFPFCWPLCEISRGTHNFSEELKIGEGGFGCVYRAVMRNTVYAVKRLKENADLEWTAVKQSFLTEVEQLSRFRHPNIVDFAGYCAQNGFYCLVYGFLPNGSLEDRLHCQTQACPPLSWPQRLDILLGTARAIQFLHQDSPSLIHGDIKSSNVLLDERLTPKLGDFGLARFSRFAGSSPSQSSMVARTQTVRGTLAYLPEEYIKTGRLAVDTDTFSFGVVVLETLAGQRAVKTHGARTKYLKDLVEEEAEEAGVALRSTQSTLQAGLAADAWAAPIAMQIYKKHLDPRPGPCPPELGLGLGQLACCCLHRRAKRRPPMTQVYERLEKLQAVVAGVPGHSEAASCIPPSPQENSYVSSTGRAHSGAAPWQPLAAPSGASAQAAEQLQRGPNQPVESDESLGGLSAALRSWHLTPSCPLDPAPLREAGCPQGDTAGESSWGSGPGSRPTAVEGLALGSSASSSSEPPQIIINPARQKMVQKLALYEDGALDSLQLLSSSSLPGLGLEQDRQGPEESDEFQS
Sequence of BLK (human) (P51451 whole entry, looked up): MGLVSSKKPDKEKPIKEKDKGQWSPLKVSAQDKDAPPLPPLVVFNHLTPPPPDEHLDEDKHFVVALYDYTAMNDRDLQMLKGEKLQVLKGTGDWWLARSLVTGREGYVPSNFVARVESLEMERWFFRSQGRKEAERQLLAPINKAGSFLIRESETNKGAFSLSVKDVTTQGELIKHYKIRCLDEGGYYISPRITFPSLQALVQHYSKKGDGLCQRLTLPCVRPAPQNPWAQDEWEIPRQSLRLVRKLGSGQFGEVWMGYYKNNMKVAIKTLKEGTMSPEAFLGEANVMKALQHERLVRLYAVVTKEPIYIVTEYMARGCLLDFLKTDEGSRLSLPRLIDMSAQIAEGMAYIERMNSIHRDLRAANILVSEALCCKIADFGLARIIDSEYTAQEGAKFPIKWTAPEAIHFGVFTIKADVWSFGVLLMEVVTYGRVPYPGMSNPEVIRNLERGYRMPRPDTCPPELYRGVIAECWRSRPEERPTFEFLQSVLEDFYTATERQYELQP
Sequence of TLK1 (human) (Q9UKI8 whole entry, looked up): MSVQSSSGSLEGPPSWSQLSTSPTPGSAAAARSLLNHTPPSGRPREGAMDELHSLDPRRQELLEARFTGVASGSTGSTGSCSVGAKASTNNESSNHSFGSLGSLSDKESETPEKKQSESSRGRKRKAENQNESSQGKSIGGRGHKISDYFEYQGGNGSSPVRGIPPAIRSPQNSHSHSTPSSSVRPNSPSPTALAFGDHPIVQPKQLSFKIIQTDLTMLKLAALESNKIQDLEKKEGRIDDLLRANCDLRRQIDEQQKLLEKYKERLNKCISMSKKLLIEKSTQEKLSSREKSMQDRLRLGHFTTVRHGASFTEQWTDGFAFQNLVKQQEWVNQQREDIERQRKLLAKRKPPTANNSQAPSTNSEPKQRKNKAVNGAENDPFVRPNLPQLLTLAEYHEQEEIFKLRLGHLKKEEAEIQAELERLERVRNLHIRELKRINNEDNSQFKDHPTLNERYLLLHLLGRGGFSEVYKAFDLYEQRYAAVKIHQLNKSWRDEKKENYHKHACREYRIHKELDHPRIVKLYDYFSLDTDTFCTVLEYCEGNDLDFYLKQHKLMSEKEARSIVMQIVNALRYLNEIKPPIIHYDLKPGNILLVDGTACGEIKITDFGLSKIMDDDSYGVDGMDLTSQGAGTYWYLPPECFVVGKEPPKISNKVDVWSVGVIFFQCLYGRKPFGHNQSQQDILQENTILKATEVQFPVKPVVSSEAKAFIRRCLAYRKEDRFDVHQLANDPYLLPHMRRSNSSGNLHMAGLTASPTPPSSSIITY
Sequence of SNRK (human) (Q9NRH2 whole entry, looked up): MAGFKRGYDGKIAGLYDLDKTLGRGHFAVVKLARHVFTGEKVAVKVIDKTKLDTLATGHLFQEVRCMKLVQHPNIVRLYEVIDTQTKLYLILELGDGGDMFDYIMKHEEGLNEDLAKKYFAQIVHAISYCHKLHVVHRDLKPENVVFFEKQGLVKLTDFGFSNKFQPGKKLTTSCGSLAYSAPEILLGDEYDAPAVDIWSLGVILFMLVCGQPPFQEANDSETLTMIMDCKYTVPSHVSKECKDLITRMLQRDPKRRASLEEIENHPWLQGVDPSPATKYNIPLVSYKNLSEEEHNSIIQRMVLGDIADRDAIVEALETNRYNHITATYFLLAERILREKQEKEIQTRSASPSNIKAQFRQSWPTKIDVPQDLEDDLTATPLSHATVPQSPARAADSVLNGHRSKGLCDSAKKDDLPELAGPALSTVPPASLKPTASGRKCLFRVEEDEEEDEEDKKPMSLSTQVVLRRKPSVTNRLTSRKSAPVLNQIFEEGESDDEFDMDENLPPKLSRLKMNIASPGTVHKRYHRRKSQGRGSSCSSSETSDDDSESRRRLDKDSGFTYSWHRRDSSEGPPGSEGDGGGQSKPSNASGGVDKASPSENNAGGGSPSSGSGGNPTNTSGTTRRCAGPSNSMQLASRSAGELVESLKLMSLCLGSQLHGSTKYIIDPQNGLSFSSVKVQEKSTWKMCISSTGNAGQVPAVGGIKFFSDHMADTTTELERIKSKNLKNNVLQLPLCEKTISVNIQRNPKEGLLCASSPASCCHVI
Sequence of MAP4K5 (human) (Q9Y4K4 whole entry, looked up): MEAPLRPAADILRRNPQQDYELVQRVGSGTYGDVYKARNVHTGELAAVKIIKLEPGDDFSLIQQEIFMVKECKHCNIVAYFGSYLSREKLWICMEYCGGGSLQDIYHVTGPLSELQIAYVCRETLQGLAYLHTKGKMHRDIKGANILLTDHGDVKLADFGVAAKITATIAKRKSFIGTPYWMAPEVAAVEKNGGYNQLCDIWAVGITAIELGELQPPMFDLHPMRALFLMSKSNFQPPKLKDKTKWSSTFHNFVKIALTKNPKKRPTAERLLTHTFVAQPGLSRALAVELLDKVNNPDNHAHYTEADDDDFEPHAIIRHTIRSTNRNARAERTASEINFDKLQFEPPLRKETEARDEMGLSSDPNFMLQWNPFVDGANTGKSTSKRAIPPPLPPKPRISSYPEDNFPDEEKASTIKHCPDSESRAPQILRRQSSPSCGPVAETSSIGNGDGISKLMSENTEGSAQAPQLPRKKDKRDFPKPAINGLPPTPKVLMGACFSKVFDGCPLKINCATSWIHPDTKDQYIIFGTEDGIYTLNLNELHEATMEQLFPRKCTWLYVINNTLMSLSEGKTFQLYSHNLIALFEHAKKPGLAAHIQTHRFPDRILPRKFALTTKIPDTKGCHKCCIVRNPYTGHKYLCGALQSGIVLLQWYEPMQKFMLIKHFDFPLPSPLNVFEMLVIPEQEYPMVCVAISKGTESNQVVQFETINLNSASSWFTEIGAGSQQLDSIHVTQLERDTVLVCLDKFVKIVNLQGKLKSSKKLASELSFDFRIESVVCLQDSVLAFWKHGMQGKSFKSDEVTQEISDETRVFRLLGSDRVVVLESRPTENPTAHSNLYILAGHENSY

| Compound | kinase still bound, per cent of control [1] [%] | kinase still bound, per cent of control [2] [%] | kinase still bound, per cent of control [3] [%] | kinase still bound, per cent of control [4] [%] | kinase still bound, per cent of control [5] [%] | kinase still bound, per cent of control [6] [%] | kinase still bound, per cent of control [7] [%] | kinase still bound, per cent of control [8] [%] | kinase still bound, per cent of control [9] [%] | kinase still bound, per cent of control [10] [%] | kinase still bound, per cent of control [11] [%] | kinase still bound, per cent of control [12] [%] | kinase still bound, per cent of control [13] [%] | kinase still bound, per cent of control [14] [%] | kinase still bound, per cent of control [15] [%] | kinase still bound, per cent of control [16] [%] | kinase still bound, per cent of control [17] [%] | kinase still bound, per cent of control [18] [%] | kinase still bound, per cent of control [19] [%] | kinase still bound, per cent of control [20] [%] | further results |
| --- | --- | --- | --- | --- | --- | --- | --- | --- | --- | --- | --- | --- | --- | --- | --- | --- | --- | --- | --- | --- | --- |
| O=c1[nH]c2ccccc2n1C1CCN(Cc2ccc(-c3nc4cc5[nH]cnc5cc4nc3-c3ccccc3)cc2)CC1 | 100 | 97 | 81 | 90 | 100 | 64 | 91 | 97 | 70 | 69 | 84 | 91 | 82 | 76 | 87 | 100 | 53 | 92 | 93 | 64 | kinase still bound, per cent of control [21]: 100%; kinase still bound, per cent of control [22]: 66%; kinase still bound, per cent of control [23]: 100%; kinase still bound, per cent of control [24]: 73%; kinase still bound, per cent of control [25]: 82%; kinase still bound, per cent of control [26]: 89%; kinase still bound, per cent of control [27]: 84%; kinase still bound, per cent of control [28]: 94%; kinase still bound, per cent of control [29]: 75%; kinase still bound, per cent of control [30]: 79%; kinase still bound, per cent of control [31]: 100%; kinase still bound, per cent of control [32]: 100%; kinase still bound, per cent of control [33]: 66%; kinase still bound, per cent of control [34]: 76%; kinase still bound, per cent of control [35]: 100%; kinase still bound, per cent of control [36]: 100%; kinase still bound, per cent of control [37]: 98%; kinase still bound, per cent of control [38]: 81%; kinase still bound, per cent of control [39]: 89%; kinase still bound, per cent of control [40]: 51% |
| CNC(=O)Nc1ccc(-c2nc(N3CC4CCC(C3)O4)c3cnn(C4CCC5(CC4)OCCO5)c3n2)cc1 | 91 | 100 | 70 | 100 | 25 | 100 | 88 | 92 | 100 | 100 | 100 | 100 | 100 | 100 | 93 | 90 | 80 | 84 | 100 | 83 | kinase still bound, per cent of control [21]: 86%; kinase still bound, per cent of control [22]: 93%; kinase still bound, per cent of control [23]: 100%; kinase still bound, per cent of control [24]: 77%; kinase still bound, per cent of control [25]: 100%; kinase still bound, per cent of control [26]: 100%; kinase still bound, per cent of control [27]: 100%; kinase still bound, per cent of control [28]: 100%; kinase still bound, per cent of control [29]: 100%; kinase still bound, per cent of control [30]: 91%; kinase still bound, per cent of control [31]: 100%; kinase still bound, per cent of control [32]: 96%; kinase still bound, per cent of control [33]: 100%; kinase still bound, per cent of control [34]: 96%; kinase still bound, per cent of control [35]: 92%; kinase still bound, per cent of control [36]: 86%; kinase still bound, per cent of control [37]: 93%; kinase still bound, per cent of control [38]: 96%; kinase still bound, per cent of control [39]: 92%; kinase still bound, per cent of control [40]: 99% |
